Test results: US7767665B2, “1,3-benzothiazinone derivatives and use thereof” (Takeda Pharmaceutical Company Limited, priority 2001, dated 2010)

melting point	Compound
257.5 to 259.1 °C	O=C(O)CCc1ccnc(-c2nc(=O)c3ccc(Br)cc3s2)c1 [Example 188, 3-[2-(7-Bromo-4-oxo-4H-1,3-benzothiazin-2-yl)-4-pyridyl]propionic acid]
168.5 to 169.3 °C	Cc1cc(CCC(=O)OC(C)(C)C)nc(-c2nc(=O)c3ccccc3s2)c1 [Example 189, tert-Butyl 3-[4-methyl-6-(4-oxo-4H-1,3-benzothiazin-2-yl)-2-pyridyl]propanoate]
162.3 to 163 °C	Cc1cc(CCC(=O)OC(C)(C)C)nc(-c2nc(=O)c3ccc(Cl)cc3s2)c1 [Example 190, tert-Butyl 3-[6-(7-chloro-4-oxo-4H-1,3-benzothiazin-2-yl)-4-methyl-2-pyridyl]propanoate]
244.6 to 245.5 °C	Cc1cc(CCC(=O)O)nc(-c2nc(=O)c3ccccc3s2)c1 [Example 191, 3-[4-Methyl-6-(4-oxo-4H-1,3-benzothiazin-2-yl)-2-pyridyl]propionic acid]
232.2 to 233.2 °C	Cc1cc(CCC(=O)O)nc(-c2nc(=O)c3ccc(Cl)cc3s2)c1 [Example 192, 3-[6-(7-Chloro-4-oxo-4H-1,3-benzothiazin-2-yl)-4-methyl-2-pyridyl]propionic acid]
222.2 to 223.4 °C	O=c1nc(-c2cccc(-c3cccs3)n2)sc2ccccc12 [Example 193, 2-[6-(2-Thienyl)-2-pyridyl]-4H-1,3-benzothiazin-4-one]
217.9 to 218.4 °C	O=c1nc(-c2cccc(-c3ccco3)n2)sc2ccccc12 [Example 194, 2-[6-(2-Furyl)-2-pyridyl]-4H-1,3-benzothiazine-4-one]
271.3 to 272.7 °C	O=c1nc(-c2cccc(-c3cnco3)n2)sc2ccccc12 [Example 195]
253 to 254 °C	O=c1nc(-c2cccc(-n3cccn3)n2)sc2ccccc12 [Example 196, 2-[6-(1H-Pyrazol-1-yl)-2-pyridyl]-4H-1,3-benzothiazine-4-one]
195.4 to 197 °C	O=c1nc(-c2cccc(-c3ccccc3)n2)sc2ccccc12 [Example 197, 2-(6-Phenyl-2-pyridyl)-4H-1,3-benzothiazine-4-one]
200.1 to 201.1 °C	COc1ccc(-c2cccc(-c3nc(=O)c4ccccc4s3)n2)cc1 [Example 198, 2-[6-(4-Methoxyphenyl)-2-pyridyl]-4H-1,3-benzothiazine-4-one]
222.1 to 223.9 °C	O=c1nc(-c2cccc(-c3ccccn3)n2)sc2ccccc12 [Example 199, 2-[6-(2,2′-Bipyridyl)]-4H-1,3-benzothiazine-4-one]
234.9 to 235.2 °C	Cc1ccnc(-c2cc(C)cc(-c3nc(=O)c4ccccc4s3)n2)c1 [Example 200, 2-[6-(4,4′-Dimethyl-2,2′-bipyridyl)]-4H-1,3-benzothiazine-4-one]
213.8 to 215.2 °C	O=C(NCCO)c1cccc(-c2nc(=O)c3ccccc3s2)n1 [Example 201, N-(2-Hydroxyethyl)-6-(4-oxo-4H-1,3-benzothiazin-2-yl)-2-pyridinecarboxamide]
160 to 162.1 °C	CC(C)(C)OC(=O)NCc1cccc(-c2nc(=O)c3ccccc3s2)n1 [Example 202, tert-Butyl [6-(4-Oxo-4H-1,3-benzothiazin-2-yl)-2-pyridyl]methylcarbamate]
199.2 to 200.4 °C	CC(=O)NCc1cccc(-c2nc(=O)c3ccccc3s2)n1 [Example 204, N-[[6-(4-Oxo-4H-1,3-benzothiazin-2-yl)-2-pyridyl]methyl]ace tamide]
199 to 199.8 °C	CCC(=O)NCc1cccc(-c2nc(=O)c3ccccc3s2)n1 [Example 205, N-[[6-(4-Oxo-4H-1,3-benzothiazin-2-yl)-2-pyridyl]methyl]propanamide]
188.6 to 189.2 °C	CC(C)C(=O)NCc1cccc(-c2nc(=O)c3ccccc3s2)n1 [Example 206, 2-Methyl-N-[[6-(4-oxo-4H-1,3-benzothiazin-2-yl)-2-pyridyl]methyl]propanamide]
213.9 to 214.7 °C	O=C(NCc1cccc(-c2nc(=O)c3ccccc3s2)n1)c1ccccc1 [Example 207, N-[[6-(4-Oxo-4H-1,3-benzothiazin-2-yl)-2-pyridyl]methyl]benzamide]
208.5 to 209 °C	O=C(NCc1cccc(-c2nc(=O)c3ccccc3s2)n1)c1cccs1 [Example 208, N-[[6-(4-Oxo-4H-1,3-benzothiazin-2-yl)-2-pyridyl]methyl]-2-thiophenecarboxamide]
226.4 to 227.4 °C	O=C(NCc1cccc(-c2nc(=O)c3ccccc3s2)n1)C(F)(F)F [Example 209, 2,2,2-Trifluoro-N-[[6-(4-oxo-4H-1,3-benzothiazin-2-yl)-2-pyridyl]methyl]acetamide]
191.6 to 192.8 °C	CSCCC(=O)NCc1cccc(-c2nc(=O)c3ccccc3s2)n1 [Example 210, 3-(Methylthio)-N-[[6-(4-oxo-4H-1,3-benzothiazin-2-yl)-2-pyridyl]methyl]propanamide]

melting point	Compound
188.1 to 189.5 °C	CS(=O)(=O)NCc1cccc(-c2nc(=O)c3ccccc3s2)n1 [Example 211, N-[[6-(4-Oxo-4H-1,3-benzothiazin-2-yl)-2-pyridyl]methyl]methanesulfonamide]
170 to 171 °C	CCS(=O)(=O)NCc1cccc(-c2nc(=O)c3ccccc3s2)n1 [Example 212, N-[[6-(4-Oxo-4H-1,3-benzothiazin-2-yl)-2-pyridyl]methyl]ethanesulfonamide]
206.7 to 207.5 °C	O=c1nc(-c2cccc(CNS(=O)(=O)c3ccccc3)n2)sc2ccccc12 [Example 213, N-[[6-(4-Oxo-4H-1,3-benzothiazin-2-yl)-2-pyridyl]methyl]benzenesulfonamide]
175.2 to 176.3 °C	CN(C)C(=O)NCc1cccc(-c2nc(=O)c3ccccc3s2)n1 [Example 216, N,N-Dimethyl-N′-[[6-(4-oxo-4H-1,3-benzothiazin-2-yl)-2-pyridyl]methyl]urea]
170.2 to 170.8 °C	CC(C)(C)OC(=O)NCCc1cccc(-c2nc(=O)c3ccccc3s2)n1 [Example 217, tert-Butyl 2-[6-(4-oxo-4H-1,3-benzothiazin-2-yl)-2-pyridyl]ethylcarbamate]
159.8 to 161 °C	CC(C)(C)OC(=O)NCCc1ccnc(-c2nc(=O)c3ccccc3s2)c1 [Example 218, tert-Butyl 2-[2-(4-oxo-4H-1,3-benzothiazin-2-yl)-4-pyridyl]ethylcarbamate]
168.2 to 169.2 °C	CC(C)(C)OC(=O)NCCc1ccnc(-c2nc(=O)c3ccc(Cl)cc3s2)c1 [Example 219, tert-Butyl 2-[2-(7-chloro-4-oxo-4H-1,3-benzothiazin-2-yl)-4-pyridyl]ethylcarbamate]
201.7 to 202.6 °C	O=C(NCCc1cccc(-c2nc(=O)c3ccccc3s2)n1)c1ccccc1 [Example 224, N-[2-[6-(4-Oxo-4H-1,3-benzothiazin-2-yl)-2-pyridyl]ethyl]benzamide]
216.8 to 219.3 °C	O=C(NCCc1ccnc(-c2nc(=O)c3ccccc3s2)c1)c1ccccc1 [Example 225, N-[2-[2-(4-Oxo-4H-1,3-benzothiazin-2-yl)-4-pyridyl]ethyl]benzamide]
206.7 to 207.9 °C	CC(=O)NCCc1cccc(-c2nc(=O)c3ccccc3s2)n1 [Example 226, N-[2-[6-(4-Oxo-4H-1,3-benzothiazin-2-yl)-2-pyrizyl]ethyl]acetamide]
234.8 to 236.4 °C	O=C(NCCc1cccc(-c2nc(=O)c3ccccc3s2)n1)Nc1ccccc1 [Example 227, N-[2-[6-(4-Oxo-4H-1,3-benzothiazin-2-yl)-2-pyridyl]ethyl]-N′-phenylurea]
240.3 to 242.4 °C	CCNC(=O)NCCc1cccc(-c2nc(=O)c3ccccc3s2)n1 [Example 228, N-Ethyl-N′-[2-[6-(4-oxo-4H-1,3-benzothiazin-2-yl)-2-pyridyl]ethyl]urea]
190.2 to 191 °C	CN(C)C(=O)NCCc1cccc(-c2nc(=O)c3ccccc3s2)n1 [Example 229, N,N-Dimethyl-N′-[2-[6-(4-oxo-4H-1,3-benzothiazin-2-yl)-2-pyridyl]ethyl]urea]
174.9 to 175.6 °C	CCN(CC)C(=O)NCCc1cccc(-c2nc(=O)c3ccccc3s2)n1 [Example 230, N,N-Diethyl-N′-[2-[6-(4-oxo-4H-1,3-benzothiazin-2-yl)-2-pyridyl]ethyl]urea]
230.1 to 230.3 °C	CN(C)C(=O)Nc1cccc(-c2nc(=O)c3ccccc3s2)n1 [Example 231, N,N-Dimethyl-N′-[6-(4-oxo-4H-1,3-benzothiazin-2-yl)-2-pyridyl]urea]
204.3 to 204.7 °C	Cc1cccc2c(=O)nc(-c3cccc(C(=O)OC(C)(C)C)n3)sc12 [Example 232, tert-Butyl 6-(8-methyl-4-oxo-4H-1,3-benzothiazin-2-yl)-2-pyridinecarboxylate]
260.5 to 260.8 °C	Cc1cccc2c(=O)nc(-c3cccc(C(=O)O)n3)sc12 [Example 233, 6-(8-Methyl-4-oxo-4H-1,3-benzothiazin-2-yl)-2-pyridinecarboxylic acid]
170.7 to 171.5 °C	Cc1cccc2c(=O)nc(-c3cccc(C(=O)NCCCCCCNC(=O)OC(C)(C)C)n3)sc12 [Example 234, tert-Butyl 6-[[[6-(8-methyl-4-oxo-4H-1,3-benzothiazin-2-yl)-2-pyridyl]carbonyl]amino]hexylcarbamate]
280.4 to 281.1 °C	O=C1c2ccccc2C(=O)N1Cc1cccc(-c2nc(=O)c3ccccc3s2)n1 [Example 236, 2-[[6-(4-Oxo-4H-1,3-benzothiazin-2-yl)-2-pyridyl]methyl]-1H-isoindole-1,3(2H)-dione]
193.5 to 194.2 °C	CCCCNC(=O)c1ccc2c(=O)nc(-c3ccccn3)sc2c1 [Example 237, N-Butyl-4-oxo-2-(2-pyridyl)-4H-1,3-benzothiazine-7-carboxamide]
173.6 to 174.2 °C	O=C(c1ccc2c(=O)nc(-c3ccccn3)sc2c1)N1CCCC1 [Example 238, 2-(2-Pyridyl)-7-(1-pyrrolidinylcarbonyl)-4H-1,3-benzothiazine-4-one]
272.1 to 274.1 °C	O=C(NC1CC1)c1ccc2c(=O)nc(-c3ccccn3)sc2c1 [Example 239, N-Cyclopropyl-4-oxo-2-(2-pyridyl)-4H-1,3-benzothiazine-7-carboxamide]
